Measured values taken from US20100174007A1, “Haloneopentyl Bis(ALKYL) Phosphate Ester, Flame Retardant Composition Containing Same and Polyurethane Foam Prepared Therewith” (priority 2007, published 2010).

Legend:
[1] = tested on: Salmonella typhimurium TA1535; experiment: Ames test, strain TA1535; format: cell-based; conditions: with and without metabolic activation; base-pair substitution strain; further: key: +: Plus sign indicates observed mutagenic effects; −: minus sign indicates non-mutagenic property
Description: (§1) In each Ames test, a single chemical substance was evaluated in the four standard Salmonella typhimurium tester strains, TA1535, TA1537, TA98, and TA100. Strains TA1535 and TA100 identify mutagens that act via base-pair substitution whereas TA1537 and TA98 identify mutagens capable of causing frameshifts in the DNA. The bacterial strain E. coli WP2uvrA was also included as another sensitive tester strain. Each test was conducted with and without metabolic activation.

[2] = tested on: Salmonella typhimurium TA98; experiment: Ames test, strain TA98; format: cell-based; conditions: with and without metabolic activation; frameshift strain; further: key: +: Plus sign indicates observed mutagenic effects; −: minus sign indicates non-mutagenic property
Description: as §1

[3] = tested on: Salmonella typhimurium TA1537; experiment: Ames test, strain TA1537; format: cell-based; conditions: with and without metabolic activation; frameshift strain; further: key: +: Plus sign indicates observed mutagenic effects; −: minus sign indicates non-mutagenic property
Description: as §1

E. coli WP2uvrA = format: cell-based
Description: as §1

[4] = tested on: Salmonella typhimurium TA100; experiment: Ames test, strain TA100; format: cell-based; conditions: with and without metabolic activation; base-pair substitution strain; further: key: +: Plus sign indicates observed mutagenic effects; −: minus sign indicates non-mutagenic property
Description: as §1

rats = experiment: Acute oral toxicity, limit dose; format: in vivo
Description: No rats died after the administration of an oral limit dose of 5000 mg/kg of products from Example 1(B). Clinical signs were minimal and all rats fully recovered by day 3. The acute oral LD50 was greater than 5000 mg/kg.

In the case of `CC(C)(C)c1ccccc1OP(=O)(OC(CCl)CCl)OC(CCl)CCl` [O-tert-Butylphenyl bis(1,3-dichloro-2-propyl)phosphate], the “Ames test result TA1535” value [1] is reported as “+”, the “Ames test result TA98” value [2] is reported as “−” and the “Ames test result TA1537” value [3] is reported as “−”. For the same compound, the “Ames test result WP2uvrA” value (E. coli WP2uvrA) was “−” and the “Ames test result TA100” value [4] was “+”.
In the case of `O=P(OCC(CBr)(CBr)CBr)(OC(CCl)CCl)OC(CCl)CCl` [Phosphoric acid, 3-bromo-2,2-bis(bromomethyl)propyl bis[2-chloro-1-(chloromethyl)ethyl]ester], the “Ames test result TA1535” value [1] is reported as “−”, the “Ames test result TA98” value [2] is reported as “−” and the “Ames test result TA1537” value [3] is reported as “−”. The “Ames test result WP2uvrA” value (E. coli WP2uvrA) was “−” and the “Ames test result TA100” value [4] was “+”.
For “tribromoneopentyl bis(isobutyl)phosphate [Products of 1(B)]”, the “Ames test result TA1535” value [1] was “−”, the “acute oral LD50” value (rats; oral) was “greater than 5000 mg/kg” and the “mortality after oral limit dose” value (rats; oral limit dose of 5000 mg/kg) was “No rats died”. For the same compound, the “clinical signs after oral limit dose” value (rats; oral limit dose of 5000 mg/kg, all rats fully recovered by day 3) was “minimal”, the “Ames test result TA98” value [2] was “−” and the “Ames test result TA1537” value [3] was “−”. The “Ames test result WP2uvrA” value (E. coli WP2uvrA) was “−” and the “Ames test result TA100” value [4] was “−”.
